Patent publication US5418236A, “Anxiolytic aroyl piperidinyl and piperazinylacyl pyrroles” (Ortho Pharmaceutical Corporation, priority 1993, dated 1995)
Where two headings read alike, the source gives them in different places.

What was measured:
5-HT1A receptor = molecular target: T1, 5-HT1A receptor (Rattus norvegicus, UniProt P19327); experiment: 5-HT1A assay (competitive binding, 3H-8-hydroxy-DPAT, cerebral cortex P2 fraction); parameters: species or system male, Wistar rats
T1 construct: P2 fraction (synaptosomal membranes) from the cerebral cortex of male, Wistar rats; from tissue; host or cells: cerebral cortex of male Wistar rats, P2 fraction (synaptosomal membranes)
T1 sequence (P19327 1-422): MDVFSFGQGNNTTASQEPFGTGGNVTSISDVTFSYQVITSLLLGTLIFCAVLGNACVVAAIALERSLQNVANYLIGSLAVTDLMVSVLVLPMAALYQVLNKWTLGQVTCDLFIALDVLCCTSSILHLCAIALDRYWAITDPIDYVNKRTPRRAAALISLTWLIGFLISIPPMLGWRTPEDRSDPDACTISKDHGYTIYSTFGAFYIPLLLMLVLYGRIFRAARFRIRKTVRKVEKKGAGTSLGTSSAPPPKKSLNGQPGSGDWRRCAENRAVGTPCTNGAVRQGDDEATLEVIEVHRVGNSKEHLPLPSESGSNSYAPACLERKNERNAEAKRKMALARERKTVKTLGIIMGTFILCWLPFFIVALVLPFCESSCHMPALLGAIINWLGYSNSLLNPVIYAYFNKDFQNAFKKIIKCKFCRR
Procedure: The 5-HT1A assay used a P2 fraction (synaptosomal membranes) from the cerebral cortex of male, Wistar rats. The ligand ^3 H-8-hydroxy-DPAT was used in competitive binding experiments at a concentration of 3 nM, and 1 mM serotonin as a blank determinant. Incubation was in 3 mM potassium phosphate buffer for 20 min at 25° C.
The data from each assay were analyzed by calculating the percent inhibition of the binding of the tritiated ligands by given concentrations of the test compound. Ki values, where given, were obtained from the logit analysis of concentration-inhibition curves.

D2 receptor [1] = molecular target: D2 receptor (Rattus norvegicus, UniProt P61169); experiment: binding to the D2 receptor; conditions: 1 μM
α1 receptor = experiment: binding to the α1 receptor; conditions: for inhibition in binding to the α1 receptor: 1 μM
Male rats = experiment: anxiolytic activity: release of behavior suppressed by punishment (Vogel conflict test); format: in vivo
Procedure: The anxiolytic activity of selected compounds of the invention was assessed by determining their ability to release (disinhibit) behavior that had been suppressed by punishment (Vogel, J. R. et al. Psychopharmacology 1971, 21, 1). Male rats were deprived of water for 48 hours and were deprived of food for 24 hours prior to testing. After the first 24 hours of water deprivation, they were placed in the conflict chamber for a training period; wherein, they were allowed 200 unpunished licks from a bottle containing tap water. The experiment was run the next day. At the expected time of peak activity, the animals were placed in the chamber and allowed access to tap water. […] Their first lick initiates a 3-min test session. Subsequently,every 20th lick was punished by a 0.2-s shock delivered via the stainless-steel drinking-tube. Vehicle-treated control animals generally were willing to accept a median number of 3 to 8 shocks per test session. […] The Wilcoxon rank-sum test (Mann-WhitneyU-test) was used to test for an increase (p<0.05, 1-tailed) in the median number of shocks in drug-treated groups, compared to a concurrently run vehicle-treated group. The biological assay is considered to be valid if the effects of a known anxiolytic (positive control) are detected, within the same experiment. […]

5-HT2 receptor = 5-HT2 receptor (Rattus norvegicus, UniProt P14842); experiment: binding to the 5-HT2 receptor; conditions: 1 μM
D2 receptor [2] = molecular target: D2 receptor (Homo sapiens, UniProt P14416); conditions: background statement; cited from earlier work
[3] = 3H-8-hydroxy-DPAT 3 nM, 20 min, 25° C., rat cerebral cortex P2 fraction
[4] = 3H-8-hydroxy-DPAT 3 nM, 20 min, 25° C., rat cerebral cortex P2 fraction, read-out: Ki (5HT1A)

5-HT2 receptor, sequence (P14842 whole entry): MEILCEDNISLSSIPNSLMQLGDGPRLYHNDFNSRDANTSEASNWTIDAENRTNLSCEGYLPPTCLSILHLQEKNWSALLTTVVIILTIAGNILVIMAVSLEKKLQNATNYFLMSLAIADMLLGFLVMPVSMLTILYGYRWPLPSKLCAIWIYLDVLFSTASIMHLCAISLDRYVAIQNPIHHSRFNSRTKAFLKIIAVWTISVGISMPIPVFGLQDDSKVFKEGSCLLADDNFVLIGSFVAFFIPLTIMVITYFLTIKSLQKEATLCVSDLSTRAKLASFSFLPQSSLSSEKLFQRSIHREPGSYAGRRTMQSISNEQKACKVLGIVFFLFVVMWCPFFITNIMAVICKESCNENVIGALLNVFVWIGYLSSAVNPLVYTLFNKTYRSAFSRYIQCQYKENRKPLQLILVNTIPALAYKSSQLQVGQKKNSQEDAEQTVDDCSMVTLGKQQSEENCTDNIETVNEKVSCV
D2 receptor (Rattus norvegicus, UniProt P61169), sequence (P61169 whole entry): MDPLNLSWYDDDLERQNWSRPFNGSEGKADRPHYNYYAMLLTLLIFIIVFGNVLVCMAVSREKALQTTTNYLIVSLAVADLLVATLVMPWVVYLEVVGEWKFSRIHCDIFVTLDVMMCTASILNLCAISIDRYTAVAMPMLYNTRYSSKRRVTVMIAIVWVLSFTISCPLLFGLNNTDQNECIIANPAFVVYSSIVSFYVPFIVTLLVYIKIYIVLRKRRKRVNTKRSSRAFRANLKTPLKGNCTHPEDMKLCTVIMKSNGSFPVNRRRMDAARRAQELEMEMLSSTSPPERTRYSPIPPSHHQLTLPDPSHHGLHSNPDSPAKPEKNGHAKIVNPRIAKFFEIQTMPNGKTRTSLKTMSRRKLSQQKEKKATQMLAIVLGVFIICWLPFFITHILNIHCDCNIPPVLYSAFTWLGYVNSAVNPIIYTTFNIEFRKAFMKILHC
D2 receptor (Homo sapiens, UniProt P14416), sequence (P14416 whole entry): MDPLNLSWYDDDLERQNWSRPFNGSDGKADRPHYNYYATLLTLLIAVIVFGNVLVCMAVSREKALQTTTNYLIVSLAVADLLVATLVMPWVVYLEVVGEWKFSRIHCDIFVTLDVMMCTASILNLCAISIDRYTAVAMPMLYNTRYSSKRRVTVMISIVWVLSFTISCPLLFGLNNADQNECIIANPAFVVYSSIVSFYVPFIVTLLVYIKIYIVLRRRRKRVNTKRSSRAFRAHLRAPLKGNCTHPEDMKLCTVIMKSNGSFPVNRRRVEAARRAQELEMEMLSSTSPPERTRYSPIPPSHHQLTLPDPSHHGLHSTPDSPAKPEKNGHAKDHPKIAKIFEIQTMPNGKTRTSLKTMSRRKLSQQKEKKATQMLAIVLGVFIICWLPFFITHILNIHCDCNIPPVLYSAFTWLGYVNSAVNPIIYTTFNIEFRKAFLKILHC

With CC(C)Oc1ccccc1N1CCN(CC(=O)c2cc(C(=O)c3ccccc3Cl)n(C)c2)CC1 [Example 6-3] the inhibition at 1 µM (5-HT1A receptor; [3]) was 83%.

Work on Cn1cc(C(=O)CN2CCN(c3ncccn3)CC2)cc1C(=O)c1ccc(F)cc1 [Example 6-4] yielded an inhibition at 1 µM (5-HT1A receptor; [3]) of 91%.

Work on Cn1cc(C(=O)CN2CCN(c3ccccn3)CC2)cc1C(=O)c1ccc(Cl)cc1 [Example 6-2] yielded an inhibition at 1 µM (5-HT1A receptor; [3]) of 94%.

In the case of Cc1ccc(N(CC2=NCCN2)c2cccc(O)c2)cc1 [phentolamine, reference compound], the Ki (5-HT1A receptor) is reported as 59 nM.

Work on COc1cccc(OC)c1OCCNCC1COc2ccccc2O1 (stereo not drawn) [WB4101, reference compound] yielded a Ki (5-HT1A receptor; [4]) of 0.32 nM.

Work on Cc1c(C(=O)CN2CCN(c3ncccn3)CC2)c(C)n(C)c1C(=O)c1ccc(Cl)cc1 [Example 6-1] yielded an inhibition at 1 µM (5-HT1A receptor; [3]) of 24%.

For Cc1c(C(=O)CCCCN2CCN(c3ncccn3)CC2)c(C)n(C)c1C(=O)c1ccc(Cl)cc1 [Example 6-6], the Ki (5-HT1A receptor; [4]) was 6 nM.

In the case of Cl.Cn1cc(C(=O)CN2CCC(O)(c3ccc(Cl)cc3)CC2)cc1C(=O)c1ccccc1Cl [Example 7, 1-[5-(2-Chlorobenzoyl)-1-methyl-1H-pyrrol-3-yl]-2-[4-(4-chlorophenyl)-4-hydroxy-1-piperidinyl]ethanone Hydrochloride], the “inhibition in binding to the D2 receptor” value (D2 receptor [1]) is reported as “no inhibition”, the “inhibition in binding to the α1 receptor” value (α1 receptor) is reported as “no inhibition” and the change in responding (Male rats; 10 mg/kg IP) is reported as 180%. For the same molecule, the “inhibition in binding to the 5-HT2 receptor” value (5-HT2 receptor) was “no inhibition” and the Ki (5-HT1A receptor) was 15 nM.

Work on Cn1cc(C(=O)CN2CCC(c3ccccc3)CC2)cc1C(=O)c1ccc(Cl)cc1 [Example 8, 1-[5-(4-chlorobenzoyl)-1-methyl-1H-pyrrol-3-yl]-2-(4-phenylpiperidinyl)-ethanone] yielded an inhibition at 1 µM (5-HT1A receptor; [3]) of 69%.

Cn1cc(C(=O)CN2CCN(c3cccc4ccccc34)CC2)cc1C(=O)c1ccc(Cl)cc1 [Example 6-5] gave an inhibition at 1 µM (5-HT1A receptor; [3]) of 67%.

With Cn1cc(C(=O)CN2CCN(c3ncccn3)CC2)cc1C(=O)c1ccc([N+](=O)[O-])cc1 [Example 5, 1-[1-Methyl-5-(4-nitrobenzoyl)-1H-pyrrol-3-yl]-2-[4-(2-pyrimidinyl)-1-piperazinyl]ethanone] the “inhibition in binding to the D2 receptor” value (D2 receptor [1]) was “no inhibition”, the “inhibition in binding to the α1 receptor” value (α1 receptor) was “no inhibition” and the change in responding (Male rats; 5 mg/kg IP) was 240%. For the same molecule, the “inhibition in binding to the 5-HT2 receptor” value (5-HT2 receptor) was “no inhibition” and the Ki (5-HT1A receptor; [4]) was 7.7 nM.

For O=C1CC2(CCCC2)CC(=O)N1CCCCN1CCN(c2ncccn2)CC1 [buspirone], the Ki (α1 receptor) is listed as 138 nM and the “binding to the D2 receptor” value (D2 receptor [2]) is listed as “binds to the D2 receptor”.
